Legend:
Assay type in all cases: in vivo, mouse
mice exposed to CS [1] = assay: CS-induced impairment of mucociliary clearance (MCC), CS-induced bronchitis model
Description: (§1) In vivo CS exposures, chemical treatments and diet modifications. Age- and sex-matched mice, starting at 6-12 weeks of age, were selected at random and exposed to total body CS in a stainless steel chamber using a whole-body smoke exposure device (Model TE-10 Teague Enterprises) for 2 hours per day, 5 days per week for 4 weeks or 4-6 months. Age-matched male and female mice were used for all CS exposures. Mice were exposed to CS (mainstream and side stream smoke) from 100 3R4F cigarettes (University of Kentucky), which correlated to an average total particulate matter (TPM) of 150 mg/m^3. For animals subjected to cigarette smoke exposure, early death was used as an exclusion criterion. At the end of the exposure regimen, mice were euthanized by CO2 narcosis, the tracheas cannulated and the lungs inflated with PBS at 25 cm of H2O pressure. The left lung was tied off with a suture, dissected and flash frozen and the right lung fixed in 4% formalin at 4° C. overnight. A proximal portion of the left lung (4 month exposures only) was fixed for transmission electron microscopy (TEM) analysis.
(§2) Mice exposed to CS for 4 weeks had modifications to their dietary iron as follows: Diet 1 (Control Diet) from Harlan Laboratories (TD.94045 AIN-93G), which contained 300-ppm iron. Diet 2 (iron deficient diet) from Harlan Laboratories (TD.10210), which contained 2-6 ppm iron. […] Animals were weighed weekly and the quantity of chow consumed was recorded compared to mice on a normal iron diet. […] Animals were checked daily and the quantity of water consumed compared to control mice. […]
Assessment of Mucociliary Clearance. Mucociliary clearance was quantified using a non-invasive, oropharyngeal aspiration procedure (Lam et al., The Journal of clinical investigation 123(12), 5212-5230 (2013)). […] Whole mouse 3D μ- single-photon emission computed tomography (SPECT) images from 10 minute acquisitions at 0, 1, and 3 hour time points were obtained, reconstructed, blindly analyzed and expressed as the percent removed by mucociliary clearance. […]

mice exposed to CS [2] = assay: Weight gain of CS-exposed mice treated with DFP; details: WT mice, CS 6 or 8 weeks, DFP after 4 weeks of CS, versus CS without DFP; FIG. 6d
Description: as §1, with “A proximal portion of the left lung (4 month exposures only) was fixed for transmission electron microscopy (TEM) analysis.” left out
as §2, with “300-ppm” for “300-ppm iron. Diet 2 (iron deficient diet) from Harlan Laboratories (TD.10210), which contained 2-6 ppm”

[3] = tested on: lung mitochondrial non-heme iron; assay: Lung mitochondrial non-heme iron in CS-exposed mice; details: WT mice, CS 6 or 8 weeks, DFP after 4 weeks of CS, versus CS without DFP; FIG. 6e
Description: In vivo CS exposures, chemical treatments and diet modifications. Age- and sex-matched mice, starting at 6-12 weeks of age, were selected at random and exposed to total body CS in a stainless steel chamber using a whole-body smoke exposure device (Model TE-10 Teague Enterprises) for 2 hours per day, 5 days per week for 4 weeks or 4-6 months. Age-matched male and female mice were used for all CS exposures. Mice were exposed to CS (mainstream and side stream smoke) from 100 3R4F cigarettes (University of Kentucky), which correlated to an average total particulate matter (TPM) of 150 mg/m^3. For animals subjected to cigarette smoke exposure, early death was used as an exclusion criterion. […]
as §2, with “300-ppm” for “300-ppm iron. Diet 2 (iron deficient diet) from Harlan Laboratories (TD.10210), which contained 2-6 ppm”
Measurement of mitochondrial membrane potential and Cytochrome C oxidase activity. Mitochondrial-enriched fractions were isolated from the lungs of mice and JC1 uptake measured using the MITOISO1 mitochondrial isolation kit (Sigma Aldrich). […]

mice exposed to CS [4] = assay: BAL leukocyte counts, BALF protein and IL-33/IL-6 ELISA in CS-induced pulmonary inflammation and injury; details: WT mice, 4 weeks CS then DFP during additional 2 or 4 weeks of CS, versus CS without DFP
Description: as §1
Mice exposed to CS for 4 weeks had modifications to their dietary iron as follows: Diet 1 (Control Diet) from Harlan Laboratories (TD.94045 AIN-93G), which contained 300-ppm iron. Diet 2 (iron deficient diet) from Harlan Laboratories (TD.10210), which contained 2-6 ppm iron. Diet 3 (iron replete Diet) from Harlan Laboratories (TD.10213), which contained 2% carbonyl iron. Iron diets were exchanged for normal diets upon weaning at 3 weeks of age and used throughout the smoke exposures. Animals were weighed weekly and the quantity of chow consumed was recorded compared to mice on a normal iron diet. Deferiprone or FERRIPROX® solution (1mg/m1) (ApoPharma Inc.) was administered prophylactically in the animals' drinking water for the duration of smoke exposure. Deferiprone was also administered therapeutically in the animals' drinking water initiating therapy after 4 weeks of smoke exposure and continuing therapy for an additional 2-4 weeks. Animals were checked daily and the quantity of water consumed compared to control mice. Water solutions were changed twice weekly.
BALF isolation, cell counts and ELISA. Mice were euthanized by CO2 narcosis, the tracheas cannulated and the lungs lavaged with 0.5 ml increments of ice-cold PBS eight times (4 ml total). BALF was centrifuged at 500×g for 5 minutes. […] The cell pellet was resuspended in 500 μl PBS and leukocytes were counted using a hemocytometer. […] The percentage of macrophages, lymphocytes and polymorphonuclear leukocytes (PMNs) were counted in a total of 300 cells, and absolute numbers of each leukocyte subset were calculated. […]

## Cc1c(O)c(=O)ccn1C [DFP, Deferiprone]
Mice exposed to CS [1]; DFP-treated Irp2-/- mice versus DFP or Irp2-/- alone, CS 1 month, FIG. 6c
  CS-induced MCC impairment, DFP combined with IRP2 deficiency: better protection from CS-induced MCC impairment than DFP or Irp2−/− alone
Mice exposed to CS [1]; prophylactic: DFP in drinking water for the duration of CS-exposure (1 month), WT mice, FIG. 6c
  CS-induced MCC impairment: protected mice from CS-induced MCC impairment
Mice exposed to CS [1]; summary statement, CS-exposed mice
  experimental COPD (overall): alleviated experimental COPD
Mice exposed to CS [2]
  weight gain: improved weight gain
[3]
  lung mitochondrial iron loading: lower lung mitochondrial iron loading
Mice exposed to CS [4]; FIG. 6f
  BAL total leukocyte counts (pulmonary inflammation): significant reductions
Mice exposed to CS [4]; FIG. 6g
  total BALF protein (acute lung injury): significant reductions
Mice exposed to CS [4]; FIG. 16e
  BALF IL-6 protein concentration (pulmonary inflammation): significant reductions
Mice exposed to CS [4]; FIG. 16d
  BALF IL-33 protein concentration (pulmonary inflammation): significant reductions

— patent US10905682B2, “Use of mitochondrial iron chelators for treatment of chronic obstructive pulmonary disease” (Cornell University, priority 2015, dated 2021)
